Data taken from ChEMBL document CHEMBL3507680, “University of Dundee, Gates Library screen for HepG2 cell viability”.

assay: Human HepG2 cell viability assay in 384 well format; format: toxicity, cell-based; design: dose 125 nL, time 70.5 hour; cytotoxicity at 70.5 h: concentration not given beside the values; settings: HepG2 cells, read-out: Inhibition

Row | Compound | cytotoxicity at 70.5 h
1 | CCc1nc(NC(=O)N(C)Cc2ccoc2)nn1C | -1.12%
2 | CN1C(=O)[C@H]2CC[C@@H]1CN(C(=O)c1nnc3n1CCCCC3)C2 | -6.73%
3 | CCNC(=O)CN1CCCC(c2ccc(C(=O)O)cc2)C1 (stereo not given) | 31.1%
4 | CC(NS(C)(=O)=O)C(=O)N(C)Cc1csc(-c2ccccc2)n1 (stereo not given) | -13.9%
5 | CC1CCCCN1C(=O)c1coc(COc2cccc3cnccc23)n1 (stereo not given) | -6.78%
6 | Cc1ccccc1CSc1nc(N)cc(N2CCC(CC(N)=O)CC2)n1 | -3.38%
7 | CC(=O)Nc1ccc(Cl)c(C(=O)N(C)C(C)c2ccon2)c1 (stereo not given) | 5%
8 | CCC(CO)N(Cc1cccs1)C(=O)Cc1ccc(O)cc1 (stereo not given) | 16.3%
9 | CN1[C@@H](c2ccccc2)[C@@H](C(=O)NCc2ccccn2)C[C@@]1(C)C(=O)O | 23%
10 | Cc1ccc(-c2cn[nH]c2C2CCCN(c3cc(N)ncn3)C2)cc1 (stereo not given) | 5.4%
11 | CS(=O)(=O)N1C[C@@H]2CC[C@H](C1)N(C(=O)CCc1ccsc1)C2 | -2.59%
12 | Cc1nc(C)c(CC(=O)N2CCCN(CC3CC3)C(C(C)C)C2)c(=O)[nH]1 (stereo not given) | 0.531%
13 | CCNc1ncc(C(=O)N2CCOC(CCCC(C)C)C2)cn1 (stereo not given) | -7.7%
14 | CC(C)N(Cc1ccc(C(F)(F)F)nc1)Cc1cnn(C)c1 | -6.85%
15 | Cc1cnccc1N1CCCN(C(=O)CCn2ccnc2C)CC1 | -3.98%
16 | CN(CCc1cn[nH]c1)C(=O)C(c1ccc(F)cc1)N(C)C (stereo not given) | -9.33%
17 | Cc1nc2c(c(=O)[nH]1)CN(C(=O)CCC1CCCN(C)C1)C2 (stereo not given) | -4.89%
18 | Cn1c(-c2ccccc2Cl)nc2cc(C(=O)NC(CO)CO)cnc21 | -8.01%
19 | OCCOCCNCC1(c2ccc(F)cc2)CCOC1 (stereo not given) | -0.024%
20 | CC(C)NC(=O)[C@@H]1C[C@@H](N)CN1C(=O)CCSCc1ccc(F)cc1 | -3.93%
21 | CC(COc1ccccc1)NCc1nncn1C1CCCCC1 (stereo not given) | 7.54%
22 | O=C(O)[C@@H]1CN(CC(=O)N2CCCCC2)C[C@H]1c1ccc(F)cc1 | -2.52%

Row | Compound | cytotoxicity at 70.5 h
23 | Fc1cccc(-n2nc(C3CC3)nc2CCn2cnnn2)c1 | -3.9%
24 | Cc1ccc(CN(C)Cc2cnc(N3CCOCC3)s2)o1 | 22.4%
25 | CN(Cc1cnccn1)C(=O)[C@@]12CNC[C@@H]1CN(Cc1ccccc1)C2 | -11.2%
26 | O=C(Nc1cnc2n1CCCC2)C1CCNCC1 | 26.5%
27 | CCc1cnc(C)nc1NC1CC(=O)N(CC2CCCCC2)C1 (stereo not given) | -8.14%
28 | O=C1NCCN(C(=O)c2cn3ccsc3n2)C1Cc1ccccc1 (stereo not given) | -5.01%
29 | O=C([C@@H]1CCCO1)N1CCC(Cn2cc(-c3ccsc3)nn2)CC1 | -7.52%
30 | O=C(O)C1(Oc2ccc3ccccc3c2)CCN(c2ncccn2)CC1 | -0.873%
31 | O=C(c1ccc(C(F)(F)F)cc1)N1C[C@@H](CN2CCCCC2)[C@@H](CO)C1 | 3.19%
32 | COc1nc2c(cc1C(=O)N(C)Cc1n[nH]c3c1CCCC3)CCC2 | -6.28%
33 | Cc1ccccc1N1CCN(C(=O)c2cnn(C(C)C)c2)C(C)C1 (stereo not given) | -4.79%
34 | CCn1c(Cn2cncn2)nnc1C1CCN(C2CCNCC2)CC1 | -5.11%
35 | CCc1cc(N2CCN(C(C)=O)CC2)n2nc(C)c(C)c2n1 | 10.6%
36 | O=c1cc(CN2CC[C@@]3(O)CCCC[C@H]3C2)c2cccc3c2n1CCC3 | -11.8%
37 | CCOc1ccc(CN2CC[C@@](C)(O)[C@@H](Cc3ccccc3)C2)cn1 | -1.83%
38 | CCCOCC1CCN(C(=O)Cn2ncc(N3CCCC3)cc2=O)C1 (stereo not given) | 26.8%
39 | CN1CC2(CCN(C(=O)c3cccc(-n4cccn4)c3)CC2)OC1=O | 21.3%
40 | CCn1cc(CN2CCCN(C3Cc4ccccc4C3)CC2)cn1 | -7.57%
41 | O=C(c1cc(-c2ccco2)nc2c(Cl)cccc12)N1CC[C@H]2CNC[C@H]21 | 19.8%
42 | Cc1ncc2c(c1CNC(=O)C1(C)CCCCO1)CCNC2 (stereo not given) | 0.49%
43 | COc1nccnc1N1CCN(Cc2cccc(F)c2)C(=O)C1 | 16.1%
44 | COc1ccc(NC(=O)N2CCCC(CO)C2)c(C)c1 (stereo not given) | -6.09%

Row | Compound | cytotoxicity at 70.5 h
45 | CC(C)=CCn1ncc(N2CCOCC2)cc1=O | -1.75%
46 | CCc1c(C(=O)N2CCC3(CCCN(CCO)C3=O)C2)csc1C (stereo not given) | 6.16%
47 | CCN(Cc1nc(C)no1)C(=O)C1CC(=O)N(Cc2ccccn2)C1 (stereo not given) | -13.9%
48 | CC(C)Cc1noc(CN(C)c2cc(C(C)C)nc3ccnn23)n1 | 5.41%
49 | Cc1cc(NCCS(C)(=O)=O)n2nc(C)cc2n1 | 4.45%
50 | O=C1O[C@@H]2CN(Cc3cccc(O)c3)C[C@@H]2N1CCCN1CCOCC1 | -4.83%
51 | CSCC(C)NCc1ccc2[nH]c(C)c(C)c2c1 (stereo not given) | 1.07%
52 | NCCn1cc(C(=O)N2CCCCCC2c2ccco2)nn1 (stereo not given) | -8.2%
53 | Cc1ccc(-c2cc(C(=O)NCCCc3csc(N)n3)[nH]n2)o1 | 1.47%
54 | CCCc1cnc(C)nc1N1CCC(Cc2cccc(C(N)=O)c2)C1 (stereo not given) | -2.67%
55 | CS(=O)(=O)N1CCc2[nH]cnc2C12CCN(C1CCOCC1)CC2 | -6.93%
56 | O=C1[C@H]2CC[C@H](CN(C3CCOCC3)C2)N1Cc1cscn1 | 23.4%
57 | CC(C)[C@@H]1CN(S(=O)(=O)Cc2ccccc2)C[C@H]1NS(=O)(=O)N(C)C | -2.27%
58 | FC(F)(F)c1ccc(-c2n[nH]c3c2CN(CC2CCOC2)CC3)cc1 (stereo not given) | -15.3%
59 | C[C@@H]1CN(c2ccc(Cl)cn2)C[C@]1(C)O | 3.11%
60 | Cn1ccnc1CN(CCO)C(=O)c1nc2ccccc2s1 | 2.62%
61 | CN(c1ncccc1CNS(=O)(=O)N1CCOCC1)C1CCCCC1 | 18.5%
62 | CCCc1noc(C2CC(=O)N(CCN(C)C)C2)n1 (stereo not given) | -18.6%
63 | Cc1nc2c(c(NCCc3nc4c(s3)CCCC4)n1)CCNCC2 | -9.11%
64 | CCc1cnc(NCC2OCCc3ccccc32)nc1 (stereo not given) | 3.74%
65 | CC(C)c1nnc2sc(CC3CCS(=O)(=O)CC3)nn12 | -8.54%
66 | Cc1ccc(CNC(=O)c2cc(CN3CCC(O)CC3)on2)s1 | -18%

Row | Compound | cytotoxicity at 70.5 h
67 | COc1ccccc1CCN1CCCC(CN(C)Cc2c[nH]c(C)n2)C1 (stereo not given) | 14.9%
68 | O=C(NC1CC1)c1cccc(S(=O)(=O)NCCc2nc(C3CC3)no2)c1 | -6.39%
69 | CC(C)c1nc(N2CC[C@@H](N(C)CCc3ccccn3)[C@H](O)C2)no1 | 13.3%
70 | COc1ccc(Cc2ncc3c(n2)CN(C(=O)CCO)C3)cc1 | 25.1%
71 | CCN1CC(C(=O)N2CCc3cc(C(=O)N(C)C)n(C)c3C2)CCC1=O (stereo not given) | -6.7%
72 | Cc1cc(NC(C)c2nncn2C2CCCC2)n2nc(C)cc2n1 (stereo not given) | -6.24%
73 | Cc1cccc(C2CCCN(C(=O)CN3C(=O)CCNC3=O)C2)c1 (stereo not given) | -13.9%
74 | Cc1cc(CN2CCCn3nc(CCC(=O)O)cc3C2)ccc1F | 2.51%
75 | NC(=O)c1csc(N2CCN(Cc3cccc4nsnc34)CC2)n1 | 15.7%
76 | O=C(Nc1ccc(F)c(F)c1)N1CCC2(CCC(=O)N(C3CC3)C2)CC1 | -5.15%
77 | C=C(C)CNc1ccc(C(=O)N(CC)Cc2nccn2C)cn1 | 25.1%
78 | Cc1nn(CCO)cc1CN1CCC(N2CCC(O)CC2)CC1 | 1.99%
79 | CN(Cc1c[nH]nc1-c1ccc(F)cc1F)Cc1nccn1C | 21.7%
80 | CC(C)S(=O)(=O)N1C[C@H]2OC(=O)N(CCc3cccc(Cl)c3)[C@H]2C1 | -4.98%
81 | CCn1cc(-c2cc(C(=O)N3CCOCC3)c3cc(Cl)ccc3n2)cn1 | -5.95%
82 | CC(C)Cc1cc(CNC(=O)c2cccc3c2OCC3)no1 | -9.93%
83 | N[C@@H]1c2ccccc2C2(CCN(c3ncccc3C(F)(F)F)CC2)[C@H]1O | 44.1%
84 | CCn1ccc(C(=O)N(C)Cc2cnn(-c3cccc(OC)c3)c2)n1 | -11.2%
85 | c1ccc(OCCNc2ncnc3sc4c(c23)CCNC4)cc1 | 1.62%
86 | COc1ccccc1CN1C(=O)O[C@@H]2CN(c3nc(C)cc(C)n3)C[C@@H]21 | -3.9%
87 | O=C(CNCC1(O)CCCN(Cc2cccc(F)c2F)C1=O)NC1CC1 (stereo not given) | -1.7%
88 | CCN(Cc1ccncc1)C(=O)c1cn(CC2CCCNC2)nn1 (stereo not given) | -17.4%

Row | Compound | cytotoxicity at 70.5 h
89 | Cc1nn(C)c(C)c1CN(Cc1cccn1-c1ccccn1)C(C)C | 9.47%
90 | C[C@@H]1CN(c2cc(N3CCC(O)CC3)ncn2)C[C@@]1(O)C1CC1 | -0.962%
91 | Cn1cccc1C(=O)N1CCC2(CC1)c1nc[nH]c1CCN2S(C)(=O)=O | -3.6%
92 | Cc1cc(C)nc(NCCSc2cnn[nH]2)n1 | -2%
93 | CC(C)N1CCN(CCn2cnc3c(F)cccc3c2=O)CC1 | -2.82%
94 | Cn1c(-c2ccccc2Cl)nc2cc(C(=O)NCC3(C)COC3)cnc21 | 4.56%
95 | CCC(CC)NCC(c1ccccn1)N1CCOCC1 (stereo not given) | 2.77%
96 | O=C(NC1CC(=O)N(C2Cc3ccccc3C2)C1)c1cc[n+]([O-])cc1 (stereo not given) | 9.2%
97 | CSCc1noc(CN2CCCCC2CCc2ccc(O)cc2)n1 (stereo not given) | -2.26%
98 | COc1cc(C)c(-c2ccc(F)c3c2OC(CN)C3)cc1C (stereo not given) | -0.0935%
99 | CC(C)c1cc(C2CCN(C(=O)Cn3cnnn3)CC2)[nH]n1 | -6.46%
100 | O=C(c1cccc(O)c1)N1C[C@@H](CN2CCCCC2)[C@@H](CO)C1 | -4.01%
101 | OCC1(O)CCN(c2ncccc2C(F)(F)F)CC1 | -0.128%
102 | Cc1cnc(-c2cccc(-c3ccn(CCCO)n3)c2)nc1N(C)C | -3.76%
103 | CNC(=O)c1nc(CN2CCOC(Cc3ccc(F)cc3)C2)no1 (stereo not given) | -15.2%
104 | CC(C)(CN1CCCC1)CN1CCC(Cn2cc(C3CC3)nn2)CC1 | -9.26%
105 | COC(C)(C)Cn1ccnc1-c1cccc(C(C)N(C)C)c1 (stereo not given) | -7.08%
106 | CS(=O)(=O)N1CCc2[nH]nc(Cc3cccs3)c2C1 | -2.7%
107 | CCOc1ccccc1CN(CC)Cc1ccc(S(=O)(=O)NC)cc1 | -5.11%
108 | Cc1cc(C)nc(N2CC[C@@]3(O)CCN(S(=O)(=O)N(C)C)C[C@H]3C2)n1 | 16.5%
109 | COC[C@H](C)Nc1cc(C)c2ccc(SC)cc2n1 | -8%
110 | COc1cc(OC)c2nc(NCCN3CCNC3=O)cc(C)c2c1 | 2.59%
